{"source": "patent US20250387424A1", "about": "“PHARMACEUTICAL COMPOSITION COMPRISING A3 ADENOSINE RECEPTOR AGONIST FOR TREATMENT OF PSORIASIS” (CAN-FITE BIOPHARMA LTD., priority 2022, published 2025)", "key": {"[1]": {"system": "patients with moderate to severe plaque psoriasis", "assay": "COMFORT-1 phase 3 trial, efficacy (PASI, PGA2, PDI)", "assay_type": "in vivo, human"}, "[2]": {"system": "patients with moderate to severe plaque psoriasis", "assay": "COMFORT-1 phase 3 trial, safety (TEAEs, ECG)", "conditions": "for serious TEAE (number): not considered drug related; for tolerability: 32-week study period", "description": "The COMFORT-1 study was a phase 3 multicenter (with sites in Bosnia, Bulgaria, Canada, Israel, Moldova, Poland, Romania, and Serbia) randomized, double-blind, controlled clinical trial in moderate-to-severe plaque psoriasis (ClinicalTrials.gov identifier: NCT03168256). […] Eligible patients were randomly assigned to these arms in a 3:3:3:2 ratio. Blinding was maintained using a double-dummy technique. The second segment (Weeks 16-32) included 3 treatment arms, as at Week 16, the patients in the placebo arm were re-randomized to piclidenoson 2 mg BID, piclidenoson 3 mg BID, or apremilast (dose-titrated over 6 days to 30 mg BID) in a 1:1:1 ratio and treated through Week 32. Those originally assigned to piclidenoson or apremilast remained on their initially assigned treatment through Week 32. Blinding was maintained through Week 32. Patients were evaluated every 2 weeks for efficacy and safety.\nSafety assessments included treatment emergent adverse events (TEAEs) and changes in vital signs, physical examination, clinical laboratory tests (liver, kidney, hematology, chemistry, and urinalysis), and electrocardiogramdings.\nOverall, 4 analysis populations were defined: The safety population included all patients who received ≥1 dose of piclidenoson; the intent-to-treat (ITT) population included all those in the safety population with at least one PASI score recorded post-BL and excluded patients who withdrew prior to Week 16 due to COVID-19-related study suspension; the modified ITT (mITT) population, which was used for the Week 16 efficacy analyses, included all ITT patients except one patient in the placebo arm who was excluded due to major protocol violations that were not captured in the original data; and lastly, the per protocol (PP) population, which was used for the Week 32 analyses, and included all ITT patients who had no major protocol violations on or before Week 16 and who completed Week 16 of the study. Exclusion from the PP population was finalized prior to any unblinded analyses. The analyses conducted for Week 32 were performed separately for patients who were initially randomized to piclidenoson or apremilast and for those who were initially randomized to the placebo group.\nDescriptive statistics were used to summarize patient characteristics and safety. […] If a patient had more than one TEAE with the same PT, the patient was counted once."}, "[3]": {"assay": "COMFORT-1 phase 3 trial, pharmacokinetics (Cmax, AUC)", "assay_type": "in vivo, human", "conditions": "2 mg BID arm compared with 3 mg BID arm; Weeks 0, 8, 16", "method": "The trial had 2 segments (FIG. 1). […] Blinding was maintained through Week 32.\nThe primary endpoints included the proportion of patients achieving PASI 75 in the piclidenoson 2 mg and 3 mg BID arms vs. placebo at Week 16 (superiority) and safety. Secondary endpoints at Week 16 compared the piclidenoson arms to placebo and included the proportion of patients achieving PASI 50, the proportion of patients achieving a score of 0 or 1 in PGA2 (a PASI-based measure calculated using the intensity grading of components of the PASI score; specifically, it is the average of the PASI erythema, infiltration, and desquamation scores) [Gordon, K. B. et al. N Engl J Med 373, 136-144 (2015)], and the proportion of patients experiencing an improvement from BL in Psoriasis Disability Index (PDI). Additional secondary endpoints were evaluated at Week 32 and compared the piclidenoson arms to apremilast. These included the proportion of patients achieving PASI 75, PASI 50, PGA2 of 0 or 1, and the proportion of patients experiencing an improvement from BL in PDI. PK analysis, including calculating the peak concentration of the drug in the bloodstream after administration (Cmax), was conducted for Weeks 0, 8, and 16."}, "[4]": {"conditions": "apremilast 30 mg BID, Week 32, PP population"}, "[5]": {"conditions": "apremilast 30 mg BID, Weeks 0-32, safety population N = 177"}, "[6]": {"conditions": "piclidenoson 2 mg BID, Weeks 0-32, safety population N = 179"}, "[7]": {"conditions": "piclidenoson 3 mg BID, Weeks 0-32, safety population N = 173"}}}
{"smiles": "CCOc1cc([C@@H](CS(C)(=O)=O)N2C(=O)c3cccc(NC(C)=O)c3C2=O)ccc1OC", "note": "[Apremilast, apremilast, reference compound]", "values": [{"measurement": "patients achieving improvement from baseline in PDI (number/arm total)", "setting": "[1]; [4]", "result": "59/108"}, {"measurement": "proportion of patients achieving PASI 50", "setting": "[1]; [4]", "result": 25.2, "unit": "%"}, {"measurement": "proportion of patients achieving improvement from BL in PDI", "setting": "[1]; [4]", "result": 55.1, "unit": "%"}, {"measurement": "proportion of patients with PGA2 of 0 or 1", "setting": "[1]; [4]", "result": 24.3, "unit": "%"}, {"measurement": "proportion of patients achieving PASI 75", "setting": "[1]; apremilast 30 mg BID, Week 32, PP population, initially randomized to active treatment", "result": 26.2, "unit": "%"}, {"measurement": "Incidence of TEAE: GI disorders: Any", "setting": "[2]; [5]", "result": 7.3, "unit": "%"}, {"measurement": "Incidence of TEAE: Nervous system: Any", "setting": "[2]; [5]", "result": 9.6, "unit": "%"}, {"measurement": "serious TEAE (number)", "setting": "[2]; apremilast 30 mg BID, pneumonia", "result": 1}, {"measurement": "patients who withdrew from the study due to TEAEs", "setting": "[2]; apremilast arm, Weeks 0-32", "result": 1}]}
{"smiles": "CNC(=O)[C@H]1O[C@@H](n2cnc3c(NCc4cccc(I)c4)ncnc32)[C@H](O)[C@@H]1O", "note": "[Piclidenoson, methyl 1-[N^6-(3-iodobenzyl)-adenin-9-yl]-β-D-ribofuronamide]", "values": [{"measurement": "proportion of patients achieving PGA2 (0 or 1)", "setting": "[1]; piclidenoson 2 mg BID, Week 16, mITT population, p=0.027 vs placebo", "result": "11.8%±2.8%"}, {"measurement": "proportion of patients achieving PASI 50", "setting": "[1]; piclidenoson 2 mg BID, Week 16, mITT population, p=0.060 vs placebo", "result": 26.0, "unit": "%"}, {"measurement": "proportion of patients achieving PASI 75", "setting": "[1]; piclidenoson 2 mg BID, Week 16, mITT population, p=0.075 vs placebo", "result": "7.9%±2.4%"}, {"measurement": "proportion of patients achieving PDI improvement from BL", "setting": "[1]; piclidenoson 2 mg BID, Week 16, mITT population, p=0.70 vs placebo", "result": 63.3, "unit": "%"}, {"measurement": "proportion of patients achieving PASI 75", "setting": "[1]; piclidenoson 2 mg BID, Week 32, PP population, initially randomized to active treatment, noninferiority vs apremilast p=0.429", "result": 20.8, "unit": "%"}, {"measurement": "proportion of patients with PGA2 of 0 or 1", "setting": "[1]; piclidenoson 2 mg BID, Week 32, PP population, noninferiority vs apremilast p=0.417", "result": 18.9, "unit": "%"}, {"measurement": "proportion of patients achieving improvement from BL in PDI", "setting": "[1]; piclidenoson 2 mg BID, Week 32, PP population, noninferiority vs apremilast p=0.66", "result": 48.1, "unit": "%"}, {"measurement": "proportion of patients achieving PASI 50", "setting": "[1]; piclidenoson 2 mg BID, Week 32, PP population, noninferiority vs apremilast p=0.75", "result": 17.0, "unit": "%"}, {"measurement": "proportion of patients achieving PASI 75", "setting": "[1]; piclidenoson 3 mg BID, Week 16, mITT population, p=0.037 vs placebo", "result": "9.7%±1.8%"}, {"measurement": "proportion of patients achieving PASI 75", "setting": "[1]; piclidenoson 3 mg BID, Week 16, mITT population, p=0.037 vs placebo, listed as piclidenoson", "result": 9.7, "unit": "%"}, {"measurement": "proportion of patients achieving PGA2 (0 or 1)", "setting": "[1]; piclidenoson 3 mg BID, Week 16, mITT population, p=0.068 vs placebo", "result": "10.7%±3.0%"}, {"measurement": "proportion of patients achieving PASI 50", "setting": "[1]; piclidenoson 3 mg BID, Week 16, mITT population, p=0.475 vs placebo", "result": 19.4, "unit": "%"}, {"measurement": "proportion of patients achieving PDI improvement from BL", "setting": "[1]; piclidenoson 3 mg BID, Week 16, mITT population, p=1.00 vs placebo", "result": 58.3, "unit": "%"}, {"measurement": "patients achieving improvement from baseline in PDI (number/arm total)", "setting": "[1]; piclidenoson 3 mg BID, Week 32, PP population", "result": "51/88"}, {"measurement": "proportion of patients achieving PASI 75", "setting": "[1]; piclidenoson 3 mg BID, Week 32, PP population, initially randomized to active treatment, noninferiority vs apremilast p=0.881", "result": 17.0, "unit": "%"}, {"measurement": "proportion of patients achieving improvement from BL in PDI", "setting": "[1]; piclidenoson 3 mg BID, Week 32, PP population, noninferiority vs apremilast p=0.072", "result": 58.0, "unit": "%"}, {"measurement": "proportion of patients achieving PASI 50", "setting": "[1]; piclidenoson 3 mg BID, Week 32, PP population, noninferiority vs apremilast p=0.49", "result": 19.3, "unit": "%"}, {"measurement": "proportion of patients with PGA2 of 0 or 1", "setting": "[1]; piclidenoson 3 mg BID, Week 32, PP population, noninferiority vs apremilast p=0.777", "result": 15.9, "unit": "%"}, {"measurement": "safety profile", "setting": "[2]; 3 mg dose of piclidenoson", "result": "excellent and better than apremilast"}, {"measurement": "safety profile compared with placebo", "setting": "[2]; both piclidenoson dosages, placebo used only Week 0 through Week 16", "result": "generally comparable to that of placebo"}, {"measurement": "safety profile compared with apremilast", "setting": "[2]; piclidenoson 2 mg BID and 3 mg BID", "result": "more favorable than that of apremilast"}, {"measurement": "patients who withdrew from the study due to TEAEs", "setting": "[2]; piclidenoson 2 mg BID arm, Weeks 0-32", "result": 2}, {"measurement": "tolerability", "setting": "[2]; piclidenoson 2 mg BID", "result": "well-tolerated"}, {"measurement": "Incidence of TEAE: GI disorders: Any", "setting": "[2]; [6]", "result": 2.8, "unit": "%"}, {"measurement": "Incidence of TEAE: Infections/infestations: Nasopharyngitis", "setting": "[2]; [6]", "result": 2.2, "unit": "%"}, {"measurement": "Incidence of TEAE: Infections/infestations: Urinary tract infection", "setting": "[2]; [6]", "result": 3.4, "unit": "%"}, {"measurement": "Incidence of TEAE: Nervous system: Any", "setting": "[2]; [6]", "result": 1.7, "unit": "%"}, {"measurement": "serious TEAE (number)", "setting": "[2]; piclidenoson 2 mg BID, arterial embolism", "result": 1}, {"measurement": "patients who withdrew from the study due to TEAEs", "setting": "[2]; piclidenoson 3 mg BID arm, Weeks 0-32", "result": 5}, {"measurement": "tolerability", "setting": "[2]; piclidenoson 3 mg BID", "result": "well-tolerated"}, {"measurement": "Incidence of TEAE: GI disorders: Any", "setting": "[2]; [7]", "result": 1.2, "unit": "%"}, {"measurement": "Incidence of TEAE: Infections/infestations: Nasopharyngitis", "setting": "[2]; [7]", "result": 2.9, "unit": "%"}, {"measurement": "Incidence of TEAE: Nervous system: Any", "setting": "[2]; [7]", "result": 1.7, "unit": "%"}, {"measurement": "serious TEAE (number)", "setting": "[2]; piclidenoson 3 mg BID, osteomyelitis", "result": 1}, {"measurement": "exposure as measured by both Cmax and AUC", "setting": "[3]", "result": "similar"}]}
